Assay results: paper PMC9278983, “Biochemical and Structural Characterization of Thermostable GH159 Glycoside Hydrolases Exhibiting α-L-Arabinofuranosidase Activity” (Frontiers in Molecular Biosciences, 2022)

Experiments:
Type in all cases: biochemical
[1] = target: T1, Ch_Gaf159A (Caldicellulosiruptor hydrothermalis, UniProt E4QB49); test: product inhibition, pNPA hydrolysis; details: read-out: % inhibition at 500 mM
T1 construct: gene Calhy_0274; full-length (no signal peptide), C-terminal His6 tag, pET24c(+), E. coli BL21 Star, IMAC; monomer

[2] = target: T2, Ck_Gaf159A (Caldicellulosiruptor kronotskyensis, UniProt E4SDK8); test: product inhibition, pNPA hydrolysis; details: read-out: % inhibition at 500 mM
T2 construct: gene Calkro_0290; full-length (no signal peptide), C-terminal His6 tag, pET24c(+), E. coli BL21 Star, IMAC

[3] = target: T3, Cs_Gaf159A (Caldicellulosiruptor saccharolyticus, UniProt A4XGP0); test: product inhibition, pNPA hydrolysis; details: read-out: % inhibition at 500 mM
T3 construct: gene Csac_0437; full-length (no signal peptide), C-terminal His6 tag, pET24c(+), E. coli BL21 Star, IMAC

[4] = target: T3, Cs_Gaf159A; test: pNP release, […] nm, Michaelis-Menten; details: 90 °C, pH 6.5 MOPS, 10 mM CaCl2, 10 min; saturation not reached
[5] = target: T1, Ch_Gaf159A; test: pNP release, […] nm, Michaelis-Menten; details: 82 °C, pH 6.5 MOPS, 10 mM CaCl2, 10 min; saturation not reached

T3 sequence (A4XGP0 entry or part of it): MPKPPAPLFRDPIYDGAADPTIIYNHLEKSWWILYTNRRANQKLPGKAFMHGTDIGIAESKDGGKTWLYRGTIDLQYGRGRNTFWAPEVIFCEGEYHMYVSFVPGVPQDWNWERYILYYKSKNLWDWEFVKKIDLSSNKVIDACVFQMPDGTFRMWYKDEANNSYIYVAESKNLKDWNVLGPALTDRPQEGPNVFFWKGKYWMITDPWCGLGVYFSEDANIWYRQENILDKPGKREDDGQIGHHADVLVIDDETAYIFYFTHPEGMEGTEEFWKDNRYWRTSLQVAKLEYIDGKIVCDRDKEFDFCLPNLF
T1 sequence (E4QB49 entry or part of it): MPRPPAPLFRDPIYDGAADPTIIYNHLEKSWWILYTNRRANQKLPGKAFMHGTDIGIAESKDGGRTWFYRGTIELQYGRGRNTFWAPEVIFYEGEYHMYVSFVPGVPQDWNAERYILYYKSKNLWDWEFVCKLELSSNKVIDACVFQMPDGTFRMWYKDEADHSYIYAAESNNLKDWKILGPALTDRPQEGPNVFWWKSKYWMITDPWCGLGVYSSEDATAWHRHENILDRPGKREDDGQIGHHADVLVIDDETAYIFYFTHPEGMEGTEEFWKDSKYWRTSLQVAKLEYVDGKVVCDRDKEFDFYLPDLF
T2 sequence (E4SDK8 entry or part of it): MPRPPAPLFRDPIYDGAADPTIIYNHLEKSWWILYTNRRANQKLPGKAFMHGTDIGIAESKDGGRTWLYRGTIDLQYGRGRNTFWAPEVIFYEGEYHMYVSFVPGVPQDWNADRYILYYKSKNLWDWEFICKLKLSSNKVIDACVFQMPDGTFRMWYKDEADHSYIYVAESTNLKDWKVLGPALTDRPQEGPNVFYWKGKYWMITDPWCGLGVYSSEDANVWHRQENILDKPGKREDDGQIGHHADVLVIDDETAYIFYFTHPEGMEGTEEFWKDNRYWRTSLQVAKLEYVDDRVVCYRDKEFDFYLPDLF

| inhibition at 500000 µM [1] [%] | inhibition at 500000 µM [2] [%] | inhibition at 500000 µM [3] [%] | Km [4] [mM] | Km [5] [mM] | Structure (SMILES) |
| --- | --- | --- | --- | --- | --- |
| < 50 | < 50 | < 50 | – | – | OC1OC[C@H](O)[C@H](O)[C@H]1O (some centres unmarked) [arabinose] |
| – | – | – | > 10 | > 10 | O=[N+]([O-])c1ccc(O[C@@H]2O[C@@H](CO)[C@H](O)[C@H]2O)cc1 [pNPA, pNP-α-L-arabinofuranoside] |
